# Source: PubChem BioAssay (NCI)
#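 Grown in 96-well plates, cells were treated for 48 hours with each compound at five concentrations. Insufficient inhibition: endpoint recorded as highest concentration tested. GI50 is the concentration that inhibits growth by half. At the TGI there is no net growth.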
# Experiments:
# Experiment in all cases: growth of human tumour cells (NCI), 48 h
# 786-0 renal = tested on: 786-0 renal
# NCI-H23 lung = tested on: NCI-H23 lung
# OVCAR-8 ovarian = tested on: OVCAR-8 ovarian
# HOP-62 NSCLC = tested on: HOP-62 NSCLC
# MCF7 breast = tested on: MCF7 breast
# PC-3 prostate = tested on: PC-3 prostate
# HCC-2998 colon = tested on: HCC-2998 colon
# SW-620 colon = tested on: SW-620 colon
# M14 melanoma = tested on: M14 melanoma
# ACHN renal = tested on: ACHN renal
# UACC-257 melanoma = tested on: UACC-257 melanoma
# HCT-116 colon = tested on: HCT-116 colon
# COLO 205 colon = tested on: COLO 205 colon
# MALME-3M melanoma = tested on: MALME-3M melanoma
# SR leukemia = tested on: SR leukemia
# BT-549 breast = tested on: BT-549 breast
# SNB-19 CNS = tested on: SNB-19 CNS
# HL-60(TB) leukemia = tested on: HL-60(TB) leukemia
# MDA-MB-231 breast = tested on: MDA-MB-231 breast
# DU-145 prostate = tested on: DU-145 prostate
# RXF 393 renal = tested on: RXF 393 renal
# U251 CNS = tested on: U251 CNS
# SK-MEL-28 melanoma = tested on: SK-MEL-28 melanoma
# SF-295 CNS = tested on: SF-295 CNS
# K-562 leukemia = tested on: K-562 leukemia
# NCI-H460 lung = tested on: NCI-H460 lung
# SK-MEL-2 melanoma = tested on: SK-MEL-2 melanoma
# HCT-15 colon = tested on: HCT-15 colon
# SN12C renal = tested on: SN12C renal
# LOX IMVI melanoma = tested on: LOX IMVI melanoma
# NCI/ADR-RES ovarian = tested on: NCI/ADR-RES ovarian
# HT29 colon = tested on: HT29 colon
# UO-31 renal = tested on: UO-31 renal
# SNB-75 CNS = tested on: SNB-75 CNS
# IGROV1 ovarian = tested on: IGROV1 ovarian
# CCRF-CEM leukemia = tested on: CCRF-CEM leukemia
# TK-10 renal = tested on: TK-10 renal
# SF-539 CNS = tested on: SF-539 CNS
# OVCAR-4 ovarian = tested on: OVCAR-4 ovarian
# HS 578T breast = tested on: HS 578T breast
# MOLT-4 leukemia = tested on: MOLT-4 leukemia
# SK-OV-3 ovarian = tested on: SK-OV-3 ovarian
# RPMI-8226 leukemia = tested on: RPMI-8226 leukemia
# HOP-92 NSCLC = tested on: HOP-92 NSCLC
# SF-268 CNS = tested on: SF-268 CNS
# KM12 colon = tested on: KM12 colon
# NCI-H226 lung = tested on: NCI-H226 lung
# T-47D breast = tested on: T-47D breast
# OVCAR-3 ovarian = tested on: OVCAR-3 ovarian
# OVCAR-5 ovarian = tested on: OVCAR-5 ovarian
# NCI-H522 lung = tested on: NCI-H522 lung
# CAKI-1 renal = tested on: CAKI-1 renal
# A498 renal = tested on: A498 renal
# SK-MEL-5 melanoma = tested on: SK-MEL-5 melanoma
structure (smiles),measurement,setting,value
Cc1[nH]nc2c1N=C(c1ccccc1Cl)c1cc([N+](=O)[O-])ccc1N2,GI50,786-0 renal,1.35 µM
same,TGI,786-0 renal,> 17.1 µM
same,GI50,NCI-H23 lung,5.06 µM
same,TGI,NCI-H23 lung,> 25 µM
same,GI50,OVCAR-8 ovarian,> 25 µM
same,TGI,OVCAR-8 ovarian,> 25 µM
same,GI50,HOP-62 NSCLC,1.02 µM
same,TGI,HOP-62 NSCLC,> 25 µM
same,GI50,MCF7 breast,0.142 µM
same,TGI,MCF7 breast,> 25 µM
same,GI50,PC-3 prostate,0.233 µM
same,TGI,PC-3 prostate,> 25 µM
same,GI50,HCC-2998 colon,14.6 µM
same,TGI,HCC-2998 colon,> 25 µM
same,GI50,SW-620 colon,0.14 µM
same,TGI,SW-620 colon,> 25 µM
same,GI50,M14 melanoma,0.687 µM
same,TGI,M14 melanoma,> 25 µM
same,GI50,ACHN renal,1.07 µM
same,TGI,ACHN renal,> 15.3 µM
same,GI50,UACC-257 melanoma,> 25 µM
same,TGI,UACC-257 melanoma,> 25 µM
same,GI50,HCT-116 colon,0.337 µM
same,TGI,HCT-116 colon,> 25 µM
same,GI50,COLO 205 colon,0.981 µM
same,TGI,COLO 205 colon,> 25 µM
same,GI50,MALME-3M melanoma,> 25 µM
same,TGI,MALME-3M melanoma,> 25 µM
same,GI50,SR leukemia,0.11 µM
same,TGI,SR leukemia,> 25 µM
same,GI50,BT-549 breast,> 15.1 µM
same,TGI,BT-549 breast,> 25 µM
same,GI50,SNB-19 CNS,> 25 µM
same,TGI,SNB-19 CNS,> 25 µM
same,GI50,HL-60(TB) leukemia,0.104 µM
same,TGI,HL-60(TB) leukemia,> 25 µM
same,GI50,MDA-MB-231 breast,4.42 µM
same,TGI,MDA-MB-231 breast,> 25 µM
same,GI50,DU-145 prostate,0.891 µM
same,TGI,DU-145 prostate,> 25 µM
same,GI50,RXF 393 renal,0.245 µM
same,TGI,RXF 393 renal,1.92 µM
same,GI50,U251 CNS,0.511 µM
same,TGI,U251 CNS,> 25 µM
same,GI50,SK-MEL-28 melanoma,> 25 µM
same,TGI,SK-MEL-28 melanoma,> 25 µM
same,GI50,SF-295 CNS,0.256 µM
same,GI50,K-562 leukemia,0.175 µM
same,TGI,K-562 leukemia,> 25 µM
same,GI50,NCI-H460 lung,0.484 µM
same,TGI,NCI-H460 lung,> 25 µM
same,GI50,SK-MEL-2 melanoma,0.126 µM
same,TGI,SK-MEL-2 melanoma,> 25 µM
same,GI50,HCT-15 colon,0.198 µM
same,TGI,HCT-15 colon,> 25 µM
same,GI50,SN12C renal,3.29 µM
same,TGI,SN12C renal,> 25 µM
same,GI50,LOX IMVI melanoma,1.92 µM
same,TGI,LOX IMVI melanoma,> 25 µM
same,GI50,NCI/ADR-RES ovarian,0.728 µM
same,TGI,NCI/ADR-RES ovarian,> 25 µM
same,GI50,HT29 colon,0.979 µM
same,TGI,HT29 colon,> 25 µM
same,GI50,UO-31 renal,4.94 µM
same,TGI,UO-31 renal,> 25 µM
same,GI50,SNB-75 CNS,0.0215 µM
same,GI50,IGROV1 ovarian,> 8.07 µM
same,TGI,IGROV1 ovarian,> 25 µM
same,GI50,CCRF-CEM leukemia,0.76 µM
same,TGI,CCRF-CEM leukemia,> 25 µM
same,GI50,TK-10 renal,9.23 µM
same,TGI,TK-10 renal,> 25 µM
same,GI50,SF-539 CNS,0.132 µM
same,TGI,SF-539 CNS,> 5.27 µM
same,GI50,OVCAR-4 ovarian,5.15 µM
same,TGI,OVCAR-4 ovarian,> 25 µM
same,GI50,HS 578T breast,0.223 µM
same,TGI,HS 578T breast,> 25 µM
same,GI50,MOLT-4 leukemia,14.8 µM
same,TGI,MOLT-4 leukemia,> 25 µM
same,GI50,SK-OV-3 ovarian,1.62 µM
same,TGI,SK-OV-3 ovarian,> 25 µM
same,GI50,RPMI-8226 leukemia,0.97 µM
same,TGI,RPMI-8226 leukemia,> 25 µM
same,GI50,HOP-92 NSCLC,> 18.9 µM
same,TGI,HOP-92 NSCLC,> 25 µM
same,GI50,SF-268 CNS,1.14 µM
same,TGI,SF-268 CNS,> 25 µM
same,GI50,KM12 colon,0.338 µM
same,TGI,KM12 colon,> 13.7 µM
same,GI50,NCI-H226 lung,4.08 µM
same,TGI,NCI-H226 lung,> 19.6 µM
same,GI50,T-47D breast,> 25 µM
same,TGI,T-47D breast,> 25 µM
same,GI50,OVCAR-3 ovarian,0.145 µM
same,TGI,OVCAR-3 ovarian,0.836 µM
same,GI50,OVCAR-5 ovarian,> 25 µM
same,TGI,OVCAR-5 ovarian,> 25 µM
same,GI50,NCI-H522 lung,0.139 µM
same,TGI,NCI-H522 lung,> 25 µM
same,GI50,CAKI-1 renal,2.12 µM
same,TGI,CAKI-1 renal,> 22.2 µM
same,GI50,A498 renal,0.151 µM
same,TGI,A498 renal,1.62 µM
same,GI50,SK-MEL-5 melanoma,0.204 µM
same,TGI,SK-MEL-5 melanoma,> 25 µM
